biological target: ATX (human His-tagged) (Homo sapiens (Human), UniProt Q13822); assay: Human ATX enzyme inhibition assay (fluorescence quenching, MR121 substrate); format: biochemical; conditions: 30 nM ATX, 1 μM MR121 substrate, 30° C., pH 8.0
Method: Human ATX Enzyme Inhibition Assay
ATX inhibition was measured by a fluorescence quenching assay using a specifically labeled substrate analogue (MR121 substrate). To obtain this MR121 substrate, BOC and TBS protected 6-amino-hexanoic acid (R)-3-({2-[3-(2-{2-[2-(2-amino-ethoxy)-ethoxy]-ethoxy}-ethoxy)-propionylamino]-ethoxy}-hydroxy-phosphoryloxy)-2-hydroxy-propyl ester (Ferguson et al., Org Lett 2006, 8 (10), 2023) was labeled with MR121 fluorophore (CAS 185308-24-1, 1-(3-carboxypropyl)-11-ethyl-1,2,3,4,8,9,10,11-octahydro-dipyrido[3,2-b:2′,3′-i]phenoxazin-13-ium) on the free amine of the ethanolamine side and then, after deprotection, subsequently with tryptophan on the side of the aminohexanoic acid.
Assay working solutions were made as follows:
Assay buffer (50 mM Tris-HCl, 140 mM NaCl, 5 mM KCl, 1 mM CaCl2, 1 mM MgCl2, 0.01% Triton-X-100, pH 8.0;
ATX solution: ATX (human His-tagged) stock solution (1.08 mg/mL in 20 mM bicine, pH 8.5, 0.15 M NaCl, 10% glycerol, 0.3% CHAPS, 0.02% NaN3), diluted to 1.4-2.5× final concentration in assay buffer;
MR121 substrate solution: MR121 substrate stock solution (800 μM MR121 substrate in DMSO), diluted to 2-5× final concentration in assay buffer.
Test compounds (10 mM stock in DMSO, 8 μL) were obtained in 384 well sample plates (Corning Costar #3655) and diluted with 8 μL DMSO. Row-wise serial dilutions were made by transferring 8 μL cpd solution to the next row up to row O. The compound and control solutions were mixed five times and 2 μL were transferred to 384 well assay plates (Corning Costar #3702). Then, 15 μL of 41.7 nM ATX solution was added (30 nM final concentration), mixed five times and then incubated for 15 minutes at 30° C. 10 μL of MR121 substrate solution was added (1 μM final concentration), mixed 30 times and then incubated for 15 minutes at 30′C.

| SMILES | IC50 |
| --- | --- |
| O=C(COc1ccc(OC(F)(F)F)cc1)N1C[C@@H]2[C@H](C1)[C@H]1CN(C(=O)c3ccc4[nH]nnc4c3)C[C@@H]21 [Example 1.008, 1-[(3aR,3bS,6aR,6bS)-5-(1H-benzotriazole-5-carbonyl)-octahydro-cyclobuta[1,2-c;3,4-c′]dipyrrol-2-yl]-2-(4-trifluoromethoxy-phenoxy)-ethanone] | 36 nM |
| O=C(c1ccc2[nH]nnc2c1)N1C[C@@H]2[C@H](C1)[C@H]1CN(C(=O)c3ccc(C4CC4)c(OCC4CC4)n3)C[C@@H]21 [Example 1.087, (1H-benzotriazol-5-yl)-[(3aS,3bR,6aS,6bR)-5-(5-cyclopropyl-6-cyclopropylmethoxy-pyridine-2-carbonyl)-octahydro-cyclobuta[1,2-c;3,4-c′]dipyrrol-2-yl]-methanone] | 15.3 nM |
| O=C(c1ccc2[nH]nnc2c1)N1C[C@@H]2[C@H](C1)[C@H]1CN(C(=O)c3ccc4ccccc4n3)C[C@@H]21 [Example 1.038, [(3aR,3bS,6aR,6bS)-5-(1H-benzotriazole-5-carbonyl)-octahydro-cyclobuta[1,2-c;3,4-c′]dipyrrol-2-yl]-quinolin-2-yl-methanone] | 687 nM |
| Cc1oc(-c2ccc(Cl)cc2)nc1C(=O)N1C[C@@H]2[C@H]3CN(C(=O)c4ccc5[nH]nnc5c4)C[C@H]3[C@@H]2C1 [Example 1.030, [(3aR,3bS,6aR,6bS)-5-(1H-benzotriazole-5-carbonyl)-octahydro-cyclobuta[1,2-c;3,4-c′]dipyrrol-2-yl]-[2-(4-chloro-phenyl)-5-methyl-oxazol-4-yl]-methanone] | 104 nM |
| CCOc1cc(C(=O)N2C[C@@H]3[C@H]4CN(C(=O)c5ccc6[nH]nnc6c5)C[C@H]4[C@@H]3C2)nc2cc(Cl)ccc12 [Example 1.076, [(3aR,3bS,6aR,6bS)-5-(1H-benzotriazole-5-carbonyl)-octahydro-cyclobuta [1,2-c;3,4-c′]dipyrrol-2-yl]-(7-chloro-4-ethoxy-quinolin-2-yl)-methanone] | 12.5 nM |
| COCCOc1cc(C(=O)N2C[C@@H]3[C@H](C2)[C@H]2CN(C(=O)c4ccc5[nH]nnc5c4)C[C@@H]32)cc2ccccc12 [Example 1.049, [(3aS,3bS,6aR,6bR)-5-(1H-benzotriazole-5-carbonyl)-octahydro-cyclobuta[1,2-c;3,4-c′]dipyrrol-2-yl]-[4-(2-methoxy-ethoxy)-naphthalen-2-yl]-methanone] | 4 nM |
| COc1cc(C(=O)N2C[C@@H]3[C@H](C2)[C@H]2CN(C(=O)c4ccc5[nH]nnc5c4)C[C@@H]32)cc2ccccc12 [Example 1.026, [(3aS,3bS,6aR,6bR)-5-(1H-benzotriazole-5-carbonyl)-octahydro-cyclobuta[1,2-c;3,4-c′]dipyrrol-2-yl]-(4-methoxy-naphthalen-2-yl)-methanone] | 11.5 nM |
| N#Cc1ccc2cc(C(=O)N3C[C@@H]4[C@H](C3)[C@H]3CN(C(=O)c5ccc6[nH]nnc6c5)C[C@@H]43)ccc2c1 [Example 1.007, 6-[(3aS,3bS,6aR,6bR)-5-(1H-benzotriazole-5-carbonyl)-octahydro-cyclobuta[1,2-c;3,4-c′]dipyrrole-2-carbonyl]-naphthalene-2-carbonitrile] | 62 nM |
| COc1ccc2cc(C(=O)N3C[C@@H]4[C@H](C3)[C@H]3CN(C(=O)c5ccc6[nH]nnc6c5)C[C@@H]43)ccc2c1 [Example 1.005, [(3aS,3bS,6aR,6bR)-5-(1H-benzotriazole-5-carbonyl)-octahydro-cyclobuta[1,2-c;3,4-c′]dipyrrol-2-yl]-(6-methoxy-naphthalen-2-yl)-methanone] | 120 nM |
| O=C(c1cc2ccc(OC(F)(F)F)cc2[nH]1)N1C[C@@H]2[C@H](C1)[C@H]1CN(C(=O)[C@@H]3CCc4[nH]nnc4C3)C[C@@H]21 [Example 1.020, [(3aR,3bS,6aR,6bS)-5-((R)-4,5,6,7-tetrahydro-1H-benzotriazole-5-carbonyl)-octahydro-cyclobuta[1,2-c;3,4-c′]dipyrrol-2-yl]-(6-trifluoromethoxy-1H-indol-2-yl)-methanone] | 6 nM |
| O=C(c1ccc2[nH]nnc2c1)N1C[C@@H]2[C@H](C1)[C@H]1CN(C(=O)C3CCc4ccccc4O3)C[C@@H]21 (stereo partly drawn) [Example 1.042, [(3aR,3bS,6aR,6bS)-5-(1H-benzotriazole-5-carbonyl)-octahydro-cyclobuta[1,2-c;3,4-c′]dipyrrol-2-yl]-chroman-2-yl-methanone] | 632 nM |
| COCCCN1CC(C(=O)N2C[C@@H]3[C@H]4CN(C(=O)c5ccc6[nH]nnc6c5)C[C@H]4[C@@H]3C2)Cc2ccccc21 (stereo partly drawn) [Example 1.056, [(3aS,3bR,6aS,6bR)-5-(1H-benzotriazole-5-carbonyl)-octahydro-cyclobuta[1,2-c;3,4-c′]dipyrrol-2-ylH1-(3-methoxy-propyl)-1,2,3,4-tetrahydro-quinolin-3-yl]-methanone] | 29 nM |
| O=C(c1ccc2[nH]nnc2c1)N1C[C@@H]2[C@H](C1)[C@H]1CN(C(=O)c3ccc(C(F)(F)F)c(OCC(F)(F)F)n3)C[C@@H]21 [Example 1.097, (1H-benzotriazol-5-yl)-{(3aS,3bR,6aS,6bR)-5-[6-(2,2,2-trifluoro-ethoxy)-5-trifluoromethyl-pyridine-2-carbonyl]-octahydro-cyclobuta[1,2-c;3,4-c′]dipyrrol-2-yl}-methanone] | 25 nM |
| O=C(c1ccc2ccccc2c1)N1C[C@@H]2[C@H](C1)[C@H]1CN(C(=O)c3ccc4[nH]nnc4c3)C[C@@H]21 [Example 1.012, [(3aS,3bS,6aR,6bR)-5-(1H-benzotriazole-5-carbonyl)-octahydro-cyclobuta[1,2-c;3,4-c′]dipyrrol-2-yl]-naphthalen-2-yl-methanone] | 86 nM |
| O=C(/C=C/c1ccc(OC(F)(F)F)cc1)N1C[C@@H]2[C@H](C1)[C@H]1CN(C(=O)c3ccc4[nH]nnc4c3)C[C@@H]21 [Example 1.003, (E)-1-[(3aS,3bR,6aS,6bR)-5-(1H-benzotriazole-5-carbonyl)-octahydro-cyclobuta[1,2-c;3,4-c′]dipyrrol-2-yl]-3-(4-trifluoromethoxy-phenyl)-propenone] | 8.5 nM |
| Cn1c(C(=O)N2C[C@@H]3[C@H]4CN(C(=O)c5ccc6[nH]nnc6c5)C[C@H]4[C@@H]3C2)cc2ccccc21 [Example 1.024, [(3aR,3bS,6aR,6bS)-5-(1H-benzotriazole-5-carbonyl)-octahydro-cyclobuta[1,2-c;3,4-c′]dipyrrol-2-yl]-(1-methyl-1H-indol-2-yl)-methanone] | 377 nM |
| O=C(c1ccc2[nH]nnc2c1)N1C[C@@H]2[C@H](C1)[C@H]1CN(S(=O)(=O)c3ccc(-c4ccc(F)cc4)cc3)C[C@@H]21 [Example 3, (1H-Benzotriazol-5-yl)-[(3aS,3bR,6aS,6bR)-5-(4′-fluoro-biphenyl-4-sulfonyl)-octahydro-cyclobuta[1,2-c;3,4-c′]dipyrrol-2-yl]-methanone] | 173 nM |
| O=C(c1ccc(-c2ccc(Cl)cc2)cc1)N1C[C@@H]2[C@H](C1)[C@H]1CN(C(=O)c3ccc4[nH]nnc4c3)C[C@@H]21 [Example 1.017, [(3aS,3bS,6aR,6bR)-5-(1H-benzotriazole-5-carbonyl)-octahydro-cyclobuta[1,2-c;3,4-c′]dipyrrol-2-yl]-(4′-chloro-biphenyl-4-yl)-methanone] | 8 nM |
| O=C(CCc1ccc(OC(F)(F)F)cc1)N1C[C@@H]2[C@H](C1)[C@H]1CN(C(=O)c3ccc4[nH]nnc4c3)C[C@@H]21 [Example 1.001, 1-[(3aS,3bR,6aS,6bR)-5-(1H-benzotriazole-5-carbonyl)-octahydro-cyclobuta[1,2-c;3,4-c′]dipyrrol-2-yl]-3-(4-trifluoromethoxy-phenyl)-propan-1-one] | 11 nM |
| O=C(c1ccc2[nH]nnc2c1)N1C[C@@H]2[C@H](C1)[C@H]1CN(C(=O)c3cc(OCC(F)(F)F)c(C4CC4)cn3)C[C@@H]21 [Example 1.094, (1H-benzotriazol-5-yl)-{(3aS,3bR,6aS,6bR)-5-[5-cyclopropyl-4-(2,2,2-trifluoro-ethoxy)-pyridine-2-carbonyl]-octahydro-cyclobuta[1,2-c;3,4-c′]dipyrrol-2-yl}-methanone] | 77 nM |
| CCOc1cc(C(=O)N2C[C@@H]3[C@H]4CN(C(=O)c5ccc(S(N)(=O)=O)nc5)C[C@H]4[C@@H]3C2)nc2ccccc12 [Example 1.083, 5-[(3aS,3bR,6aS,6bR)-5-(4-ethoxy-quinoline-2-carbonyl)-octahydro-cyclobuta[1,2-c;3,4-c′]dipyrrole-2-carbonyl]-pyridine-2-sulfonic acid amide] | 154 nM |

From patent publication US10849881B2, “Octahydro-cyclobuta[1,2-c;3,4-c′]dipyrrol-2-yl” (Hoffmann-La Roche Inc., priority 2013, dated 2020)
